Entries after “also recorded” stand apart in the source; their conditions may differ.

Holding throughout (format): cell-based
Data set [1] concerns endothelin (ET-1)-induced rise in intracellular calcium concentration in normal human neonatal epidermal melanocytes (NHEMs). The data set can be described thus: Endothelin action-suppressing effect: endothelin-induced rise in intracellular calcium (Fluo4-AM, FDSS). As to conditions: for Effect of suppressing endothelin action (in words): 50 μM; for Rate of rise in intracellular Ca concentration: pretreated 1 minute, ET-1 100 nM, relative value, control = 100, N=6. Here is the method:
Normal human neonatal epidermal melanocytes (NHEMs, KURABO INDUSTRIES LTD.) were seeded at 3×10^4 cells/well (200 μL/well) in 96-well plates for use in fluorometry, and cultured at 37° C. under 5% CO2. The medium used was PMA (−), growth additive (HMGS)-containing Medium 254.
After culture for 3 days, the medium was removed from the culture plate by decantation, and replaced with an assay buffer containing a reagent Fluo4-AM for intracellular Ca^2++ measurement, which was followed by incubation at 37° C. for 1 hour. Subsequently, 20 seconds after the start of the measurement, the compound at a predetermined concentration was pretreated for 1 minute in a FDSS (Functional Drug Screening System) instrument, and then endothelin (ET-1, 100 nM final concentration) as a ligand was added to the wells. Fluo4-AM fluorescence was detected at the measurement wavelengths Ex. 480 nm and Em. 540 nm over time from the start of the measurement to 5 minutes later.
For each compound, the rate (%) of rise in intracellular calcium (calcium ion) concentration was calculated as a relative value (%) when an increase (Max ratio−Min ratio) in Fluo4-AM fluorescence in a control was normalized as 100. The suppressing effect of endothelin action was evaluated based on the calculated rate. In the control used, ethanol or a 10 to 95 v/v % aqueous ethanol solution was added at a final concentration of 0.1 to 0.5 v/v %. […]
The compound prepared as described above was pretreated at the final concentration shown in Table 3 and subjected to the assay system. Then, the rate of endothelin-induced rise in Ca concentration was calculated (N=6). […]
For orientation: Calcium flux is commonly read through the fluorescence of an indicator in the cells.

Data set [2] has as its system melanocyte-containing, 3-D cultured skin model (MEL300A). The data set can be described thus: Cell respiration activity (Alamar Blue) of the skin model. Particulars: final concentration 50 μM, after 14 days; results not shown. Here is the method: (§1) A melanocyte-containing, 3-D cultured skin model (MEL300A, KURABO INDUSTRIES LTD.) was cultured at 37° C. under 5% CO2 using an EPI-100-NMM113 medium to which endothelin-1 (ET-1) as a melanocyte activator and SCF (stem cell growth factor) were each added at a final concentration of 10 nM. From the first day of the culture, the baeomycesic acid was added at a final concentration of 50 μM (N=2). The medium was refreshed once every three days. After 14 days, the skin model was washed with PBS and photographed. Subsequently, the cell respiration activity was measured using the Alamar Blue reagent to confirm that the final concentration was not cytotoxic (the results are not shown).

Data set [3] shares this test system. Briefly: Melanin production-suppressing effect in 3-D cultured skin model stimulated with ET-1 and SCF. Particulars: 14 days; for Effect on melanin content / melanin production (in words): 3-D skin model. Here is the method:
as §1
Subsequently, the skin model cup was washed with PBS, and the skin sheet was removed with tweezers, transferred into a tube, and washed three times with PBS. The skin sheet was washed three times with 50% ethanol and twice with 100% ethanol, and then allowed to stand overnight at room temperature, so that it was completely dried. After 200 μL of 2 M NaOH was added, the skin sheet was dissolved at 100° C. A supernatant obtained by centrifugation of the solution was measured for absorbance at a wavelength of 405 nm, and then the melanin content was calculated. The melanin content was expressed as a relative value (%) when the melanin content in a control was normalized as 100. In the control used, ethanol or a 10 to 95 v/v % aqueous ethanol solution was added at a final concentration of 0.1 to 0.5 v/v %.

For the compound `COc1cc(C)c(C(=O)Oc2cc(C)c(C(=O)O)c(O)c2C)c(O)c1C=O` [Baeomycesic Acid, baeomycesic acid], the “Effect of suppressing endothelin action (in words)” value in data set [1] is reported as “significantly suppresses the rise in intracellular Ca concentration”. The “Rate of rise in intracellular Ca concentration” value (shortened to “Rate of rise”) in data set [1] (compound 50 μM) is listed as 52.7%. Also, the “Cytotoxicity (cell respiration activity, Alamar Blue)” value in data set [2] is “not cytotoxic”. The “Reduction in melanin content in the skin tissue relative to the control system” value in data set [3] (50 μM, ET-1 and SCF each 10 nM, FIG. 3, N=2) was “at least 40%”. Also, in data set [3] (50 μM, compared with the control system), the “Skin colour of the skin sheet (photograph, FIG. 2)” value is “light skin color and suppressed skin blackening”. Besides, in data set [3] (ET-1 and SCF each 10 nM), the “Effect on melanin content / melanin production (in words)” value was “significantly suppresses melanin production”.

Regarding `COc1cc(C)c(C(=O)Oc2cc(C)c(C(=O)O)c(O)c2C)c(O)c1C` [Barbatic Acid, Barbatic acid], the “Rate of rise” value in data set [1] (compound 50 μM) stood at 38.4%.

For `COc1cc(C)c(C(=O)Oc2cc(C)c(C(=O)O)c(O)c2C)c(OC)c1C` [Diffractaic Acid, Diffractaic acid], the “Rate of rise” value in data set [1] (compound 50 μM) came out at 28.0%.

Take `COc1cc(C)c(C(=O)Oc2cc(C)c(C(=O)O)c(O)c2C)c(O)c1C(=O)O` [Squamatic Acid, squamatic acid, reference compound]: the “Effect of suppressing endothelin action (in words)” value in data set [1] is given as “almost no effect of suppressing endothelin action”. Also, the “Rate of rise” value in data set [1] (compound 50 μM) worked out at 95.9%. Also, the “Suppression of endothelin-induced rise in intracellular Ca concentration” value in data set [1] (compound 50 μM, relative to control) was “about 4%”. In addition, the “Effect on melanin content / melanin production (in words)” value in data set [3] (ET-1 and SCF each 10 nM) is reported as “no significant reduction in melanin content; also recorded: almost no effect of suppressing melanin production”.

The record behind these values is patent US9592183B2, “Inhibitor of endothelin action and skin-whitening agent” (Kao Corporation, priority 2010, dated 2017).
